Patent US6465187B1, “Method of treatment” (Innoventus Project AB, priority 2000, dated 2002)
Read-outs that look alike come from different tables or passages of the source.

What was measured:
A1 gene = test: RNAse Protection Assay (RPA) of A1 gene expression in MCP5/L mast cells; format: cell-based, mouse
Experimental: Activation of mast cells in vitro. For FcεRI-dependent activation, MCP5/L cells were resuspended at 1×10^6 cells/ml and sensitized using a monoclonal murine IgE anti-TNP (trinitrophenyl) (IgEl-b4, ATCC, Manassas, Va.) antibody (15% hybridoma supernatant) for 90 min. The cells were washed twice with warm medium, followed by challenge with 1 μg/ml TNP-BSA for time periods indicated. For cell viability assays, both the anitbody sensitization and the anitgen challenge were performed in RPMI medium supplemented with 0.5% BSA (Sigma) at 37° C. in a humidified incubator containing 5% CO2. For gene regulation studies, all the incubations were carried out in RPMI medium supplemented with 5% fetal bovine serum and antibiotics on a rocker platform. In some experiments, cells were cross-linked in the medium containing 1 mM EDTA or cells were incubated in ice-cold water during FcεRI cross-linking. Where indicated, various inhibitors were introduced to test their effects on A1 regulation after FcεRI cross-linking. These include bisindolylmaleimid (100 nM), wortmannin (100 nM), SB 203580 (pyridinylimidazole compound, inhibitor of p 38 mitogen-activated protein kinase) (1 μM), PD 98059 (2-(2-amino-3-methoxyphenyl)-4-oxo-4H-[1]benzopyran, inhibitor of mitogen-activated protein kinase Kinase-1 (MEK1)) (10 μM), genistein (1 μM), suramin (100 μM), cyclosporin A (2 μg/ml), dexamethasone (1 μM) and cycloheximide (10 μg/ml). Dexamethasone and suramin were added 14 hr and 24 hr, respectively, before IgE sensitization. All the other inhibitors were added at the same time as FcεRI aggregation. […]
Isolation of RNA and RNAse Protection Assay (RPA) analysis. […] Pixel intensity was determined using a phosphoimaging device. Levels of each gene transcript were quantified by MacBas V2.2 (Fuji Photo Film Co. Ltd., Japan). […]

MCP5/L cells [1] = conditions: IgE-receptor cross-linkage 30 min, various concentrations of EDTA, FIG. 8B
Experimental: Activation of mast cells in vitro. For FcεRI-dependent activation, MCP5/L cells were resuspended at 1×10^6 cells/ml and sensitized using a monoclonal murine IgE anti-TNP (trinitrophenyl) (IgEl-b4, ATCC, Manassas, Va.) antibody (15% hybridoma supernatant) for 90 min. The cells were washed twice with warm medium, followed by challenge with 1 μg/ml TNP-BSA for time periods indicated. For cell viability assays, both the anitbody sensitization and the anitgen challenge were performed in RPMI medium supplemented with 0.5% BSA (Sigma) at 37° C. in a humidified incubator containing 5% CO2. […]
Measurement of release. […] The reaction was stopped by adding glycine (0.2 M, pH 10.7) into each well and the absorbance was measured. Percentage of β-hexosaminidase release is calculated as the absorbance of the supernatant over that of the combination of supernatant and lysate. […]
Effects of cold incubation and EDTA treatment on A1 induction and mast cell degranulation. […] (B) and (C) levels of β-hexosaminidase (β-hex) in the supernatants from either control cells or cells stimulated through IgE-receptor cross-linkage for 30 min, in the absence or presence of various concentrations of EDTA (B), or in cold incubation (C), were determined as a measurement of activation and de-granulation by an enzymatic colorimetric assay

MCP5/L cells [2] = test: Cell viability by trypan blue exclusion in medium deprived of serum and growth factors; format: cell-based, mouse; conditions: 4 days in medium deprived of serum and growth factors, FIG. 7
Experimental: The growth factor dependent mouse mast cell line MCP5/L was maintained in the same medium described above. For cell viability assays, the cell suspension was mixed with the vital dye, trypan blue, and only the number of live cells was scored.
For cell viability assays, both the anitbody sensitization and the anitgen challenge were performed in RPMI medium supplemented with 0.5% BSA (Sigma) at 37° C. in a humidified incubator containing 5% CO2.
Cell viability measurement. Trypan blue exclusion assay was used in all of the cell survival experiments. In brief, cell suspension was mixed with the vital dye, trypan blue, and the number of live cells was scored.

C[C@@H]1C[C@@H]([C@H](O)CC2CC(=O)NC(=O)C2)C(=O)[C@@H](C)C1 [cycloheximide]
A1 induction by FcεRI aggregation in the presence of inhibitor (A1 gene; MCP5/L cells, FcεRI crosslinkage 6 hr, wortmannin 100 nM, cyclosporin A 2 μg/ml, cycloheximide 10 μg/ml, dexamethasone 1 μM, EDTA 1 mM, FIG. 8A, 9): could completely block A1 induction

O=C(O)CN(CCN(CC(=O)O)CC(=O)O)CC(=O)O [EDTA]
β-hexosaminidase release following FcεRI aggregation in the presence of the compound (MCP5/L cells [1]): inhibit release of mast cell granular enzyme β-hexosaminidase | A1 induction by FcεRI aggregation in the presence of inhibitor (A1 gene): blocked A1 expression

C[C@H](CCC(=O)O)C[C@H](C)C[C@H](C)C(=O)/C=C(\O)[C@H](C)C[C@H](C)C/C=C/[C@@H](C)[C@@H](O)[C@@H](C)[C@@H](O)C[C@@H]1CC[C@@](C)([C@H]2CC[C@@](C)([C@@H](C)O)O2)O1 [ionomycin]
A1 gene expression (transcription) induced by the compound alone (A1 gene; MCP5/L cells exposed for 6 hr, c48/80 at concentrations of up to 1 mg/ml, FIG. 7): induced expression of A1 | Survival of mast cells treated with the compound (MCP5/L cells [2]): promoted mast cell survival
